According to PubChem BioAssay AID1963959 (Molecular Pharmacology Branch, DTP, NCI, 2024):

Test system: T-47D spheroids with HUVEC/MSC, viability
Assay: Anticancer human tumor T-47D cell line growth inhibition [PI3K];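 also: spheroids exposed to agents for seven days before reading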;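 as to viability, T/C: percent of DMSO vehicle control luminescence so 100% = untreated growth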
Conditions: for viability, T/C: stronger effect = lower value
In short: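 Complex 3D spheroids (cancer cells + endothelial HUVEC + mesenchymal stem cells); drug pairs of targeted agent x inavolisib/alpelisib/duvelisib/copanlisib; half-log series from ~Cmax, max 10 microM if Cmax unknown; endpoint viability.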

[1] = curve of first compound, second compound 0.0316 µM
[2] = curve of first compound, second compound 0.1 µM
[3] = curve of first compound, second compound 0.316 µM
[4] = curve of first compound, second compound 1 µM
[5] = curve of first compound, second compound 3.16 µM
[6] = curve of first compound, second compound 10 µM
[7] = second compound 0.0316 µM, first compound 0.0316 µM
[8] = second compound 0.0316 µM, first compound 0.1 µM
[9] = second compound 0.0316 µM, first compound 0.316 µM
[10] = second compound 0.0316 µM, first compound 1 µM
[11] = second compound 0.0316 µM, first compound 3.16 µM
[12] = second compound 0.0316 µM, first compound 10 µM
[13] = second compound 0.1 µM, first compound 0.0316 µM
[14] = second compound 0.1 µM, first compound 0.1 µM
[15] = second compound 0.1 µM, first compound 0.316 µM
[16] = second compound 0.1 µM, first compound 1 µM
[17] = second compound 0.1 µM, first compound 3.16 µM
[18] = second compound 0.1 µM, first compound 10 µM
[19] = second compound 0.316 µM, first compound 0.0316 µM
[20] = second compound 0.316 µM, first compound 0.1 µM
[21] = second compound 0.316 µM, first compound 0.316 µM
[22] = second compound 0.316 µM, first compound 1 µM
[23] = second compound 0.316 µM, first compound 3.16 µM
[24] = second compound 0.316 µM, first compound 10 µM
[25] = second compound 1 µM, first compound 0.0316 µM
[26] = second compound 1 µM, first compound 0.1 µM
[27] = second compound 1 µM, first compound 0.316 µM
[28] = second compound 1 µM, first compound 1 µM
[29] = second compound 1 µM, first compound 3.16 µM
[30] = second compound 1 µM, first compound 10 µM
[31] = second compound 3.16 µM, first compound 0.0316 µM
[32] = second compound 3.16 µM, first compound 0.1 µM
[33] = second compound 3.16 µM, first compound 0.316 µM
[34] = second compound 3.16 µM, first compound 1 µM
[35] = second compound 3.16 µM, first compound 3.16 µM
[36] = second compound 3.16 µM, first compound 10 µM
[37] = second compound 10 µM, first compound 0.0316 µM
[38] = second compound 10 µM, first compound 0.1 µM
[39] = second compound 10 µM, first compound 0.316 µM
[40] = second compound 10 µM, first compound 1 µM
[41] = second compound 10 µM, first compound 3.16 µM
[42] = second compound 10 µM, first compound 10 µM

C#Cc1c(F)ccc2cc(O)cc(-c3ncc4c(N5CC6CCC(C5)N6)nc(OCC56CCCN5CC(F)C6)nc4c3F)c12 (stereo not drawn) + Cc1nc(NC(=O)N2CCCC2C(N)=O)sc1-c1ccnc(C(C)(C)C(F)(F)F)c1
IC50 [1]: > 10 µM | IC50 [2]: > 10 µM | IC50 [3]: > 10 µM | IC50 [4]: > 10 µM | IC50 [5]: > 10 µM | IC50 [6]: < 0.0316 µM | viability, T/C [7]: 94.8% | viability, T/C [8]: 91.4% | viability, T/C [9]: 99% | viability, T/C [10]: 87.8% | viability, T/C [11]: 99.6% | viability, T/C [12]: 74.8% | viability, T/C [13]: 98.8% | viability, T/C [14]: 72.2% | viability, T/C [15]: 73.4% | viability, T/C [16]: 80.1% | viability, T/C [17]: 103% | viability, T/C [18]: 89.4% | viability, T/C [19]: 90.5% | viability, T/C [20]: 71.2% | viability, T/C [21]: 80.3% | viability, T/C [22]: 97.8% | viability, T/C [23]: 86% | viability, T/C [24]: 84.5% | viability, T/C [25]: 74.2% | viability, T/C [26]: 84.7% | viability, T/C [27]: 69.5% | viability, T/C [28]: 82.7% | viability, T/C [29]: 82.8% | viability, T/C [30]: 77.8% | viability, T/C [31]: 63.4% | viability, T/C [32]: 65.7% | viability, T/C [33]: 61.1% | viability, T/C [34]: 54% | viability, T/C [35]: 54.2% | viability, T/C [36]: 60.8% | viability, T/C [37]: 38.4% | viability, T/C [38]: 40.4% | viability, T/C [39]: 40.8% | viability, T/C [40]: 31.7% | viability, T/C [41]: 33% | viability, T/C [42]: 40.1%

CNC(=O)c1ccc(N2C(=S)N(c3ccc(C#N)c(C(F)(F)F)c3)C(=O)C2(C)C)cc1F + CC(Nc1ccc2c(c1)OCCn1cc(N3C(=O)OCC3C(F)F)nc1-2)C(N)=O
IC50 (curve of first compound, second compound 0.00316 µM): > 10 µM | IC50 (curve of first compound, second compound 0.01 µM): > 10 µM | IC50 [1]: > 10 µM | IC50 [2]: > 10 µM | IC50 [3]: > 10 µM | IC50 [4]: > 10 µM | viability, T/C (second compound 0.00316 µM, first compound 0.0316 µM): 120% | viability, T/C (second compound 0.00316 µM, first compound 0.1 µM): 98.2% | viability, T/C (second compound 0.00316 µM, first compound 0.316 µM): 104% | viability, T/C (second compound 0.00316 µM, first compound 1 µM): 81.5% | viability, T/C (second compound 0.00316 µM, first compound 3.16 µM): 104% | viability, T/C (second compound 0.00316 µM, first compound 10 µM): 88.3% | viability, T/C (second compound 0.01 µM, first compound 0.0316 µM): 105% | viability, T/C (second compound 0.01 µM, first compound 0.1 µM): 91.5% | viability, T/C (second compound 0.01 µM, first compound 0.316 µM): 88.2% | viability, T/C (second compound 0.01 µM, first compound 1 µM): 82.3% | viability, T/C (second compound 0.01 µM, first compound 3.16 µM): 91.2% | viability, T/C (second compound 0.01 µM, first compound 10 µM): 95.5% | viability, T/C [7]: 103% | viability, T/C [8]: 95% | viability, T/C [9]: 87.1% | viability, T/C [10]: 77.2% | viability, T/C [11]: 91.2% | viability, T/C [12]: 90.9% | viability, T/C [13]: 94.7% | viability, T/C [14]: 82.2% | viability, T/C [15]: 99.7% | viability, T/C [16]: 86.7% | viability, T/C [17]: 90.2% | viability, T/C [18]: 72.5% | viability, T/C [19]: 71.9% | viability, T/C [20]: 79% | viability, T/C [21]: 75.2% | viability, T/C [22]: 71% | viability, T/C [23]: 64.3% | viability, T/C [24]: 60.6% | viability, T/C [25]: 61% | viability, T/C [26]: 68% | viability, T/C [27]: 58.8% | viability, T/C [28]: 60.4% | viability, T/C [29]: 56.2% | viability, T/C [30]: 48.8%

CC(Cn1ccc(-c2ccc(C#N)c(Cl)c2)n1)NC(=O)c1cc(C(C)O)[nH]n1 (stereo not drawn) + Cc1nc(NC(=O)N2CCCC2C(N)=O)sc1-c1ccnc(C(C)(C)C(F)(F)F)c1
IC50 [1]: > 10 µM | IC50 [2]: > 10 µM | IC50 [3]: > 10 µM | IC50 [4]: > 10 µM | IC50 [5]: > 10 µM | IC50 [6]: < 0.0316 µM | viability, T/C [7]: 97% | viability, T/C [8]: 103% | viability, T/C [9]: 118% | viability, T/C [10]: 84% | viability, T/C [11]: 88.8% | viability, T/C [12]: 63.6% | viability, T/C [13]: 109% | viability, T/C [14]: 88.2% | viability, T/C [15]: 91.8% | viability, T/C [16]: 90.9% | viability, T/C [17]: 79.5% | viability, T/C [18]: 67.9% | viability, T/C [19]: 100% | viability, T/C [20]: 101% | viability, T/C [21]: 93.8% | viability, T/C [22]: 96.8% | viability, T/C [23]: 85.7% | viability, T/C [24]: 66.6% | viability, T/C [25]: 95.5% | viability, T/C [26]: 95.8% | viability, T/C [27]: 84.4% | viability, T/C [28]: 87.6% | viability, T/C [29]: 85% | viability, T/C [30]: 63.2% | viability, T/C [31]: 82.8% | viability, T/C [32]: 73.4% | viability, T/C [33]: 61% | viability, T/C [34]: 65.8% | viability, T/C [35]: 63.1% | viability, T/C [36]: 50.4% | viability, T/C [37]: 36% | viability, T/C [38]: 42.3% | viability, T/C [39]: 44.2% | viability, T/C [40]: 45.5% | viability, T/C [41]: 36.8% | viability, T/C [42]: 37.9%

CNC(=O)c1ccc(N2C(=S)N(c3ccc(C#N)c(C(F)(F)F)c3)C(=O)C2(C)C)cc1F
viability, T/C (compound 0.0316 µM): 106% [middle of 4 runs] | viability, T/C (compound 0.1 µM): 95.9% [middle of 4 runs] | viability, T/C (compound 0.316 µM): 105% [middle of 4 runs] | viability, T/C (compound 1 µM): 108% [middle of 4 runs] | viability, T/C (compound 3.16 µM): 91.4% [middle of 4 runs] | viability, T/C (compound 10 µM): 89.3% [middle of 4 runs] | IC50 (curve of compound): > 10 µM
